Reference: US20050191735A1, “Oxidoreductase” (priority 2003, published 2005)
Read-outs that look alike come from different tables or passages of the source.

Columns and labels:
[1] = test system: recombinant Lactobacillus reuteri oxidoreductase; test: Substrate spectrum in standard measurement mixture; format: biochemical; details: for NADP-dependent dehydrogenase activity: oxidation of the hydroxy ester
[2] = test system: L. reuteri oxidoreductase; test: Solvent stability: enzyme activity after contact with organic solvents; format: biochemical, Lactobacillus reuteri; details: for Activity 8 h / Activity 24 h: room temperature; for stability with respect to organic solvents: in words
Description: The enzyme stability when making contact with organic solvents was studied by diluting the L. reuteri oxidoreductase 1:400 (in the case of water-miscible organic solvents) with the solvent mixtures indicated and incubating at room temperature. Subsequently, 10 μl of the enzyme solution were used in the standard assay mixture. Here too, the starting value was set to 100% after dilution in the buffer (potassium phosphate buffer 100 mM, pH=7.0, 1 mM MgCl2) and all other values were related thereto.
In the case of the water-immiscible organic solvents, dilution was likewise carried out in potassium phosphate buffer, the same volume of organic solvent was added to the mixture and the mixture incubated at room temperature in a thermal mixer at rpm=170. The activity was measured from the aqueous phase.

[3] = test system: L. reuteri oxidoreductase; test: Preparative conversion, coenzyme regeneration with Thermoanerobium brockii ADH; format: biochemical, Lactobacillus reuteri; details: 4 ml substrate, 1 000 units oxidoreductase, room temperature, after 24 h
Description: For a preparative approach, a mixture of 4 ml of potassium phosphate buffer 100 mM, pH=7.0, 2 ml of isopropanol, 4 ml of ethyl 2-oxo-4-phenylbutyrate, 0.064 mg of NADP, 1 000 units of L. reuteri oxidoreductase and 10 mg of Thermoanerobium brockii ADH (Fluka, approximately 100 U, based on oxidation of 2-propanol) was incubated at room temperature with constant mixing for 24 h. […] 97% of the product was the corresponding S-alcohol.

[4] = test system: L. reuteri oxidoreductase; test: Preparative conversion, coenzyme regeneration with KRED 1004; format: biochemical, Lactobacillus reuteri; details: 4 ml substrate, 1 000 units oxidoreductase, 1 mg KRED 1004, room temperature, after 2 h
Description: For a preparative approach, a mixture of 4 ml of potassium phosphate buffer 100 mM, pH=7.0, 2 ml of isopropanol, 4 ml of ethyl 2-oxo-4-phenylbutyrate, 0.064 mg of NADP, 1 000 units of L. reuteri oxidoreductase and 1 mg of KRED 1004 (Biocatalytics Inc, Pasadena) was incubated at room temperature with constant mixing for 2 h. […] 98% of the product was the corresponding S-alcohol.

[5] = pH optimum of recombinant L. reuteri oxidoreductase; format: biochemical
Description: Preparation of the following measurement buffers, all of which are 50 mM, contain 1 mM MgCl2 and have different pH values.
Enzyme diluted as required (1:20)
A pH optimum of between 6.5 and 7 was determined for the enzyme of the invention.

[6] = Temperature stability of recombinant L. reuteri oxidoreductase; format: physicochemical; details: after only 30 min
Description: The temperature stability for the range from 15° C. to 70° C. was determined in a manner similar to that described under 5.2. […] Here too, the starting value used was the measurement value which is obtained immediately after diluting the enzyme in potassium phosphate buffer 50 mM pH=7.0 and which was set to 100% here, too.

[7] = substrate: CCCC(=O)C(=O)OCC; test: Determination of Km and vmax; format: biochemical, Lactobacillus reuteri; details: other: potassium phosphate buffer pH=7.0, enzyme solution 1:300
Description: The enzyme solution used was the 1:300 diluted lysate (600 μl) obtained from 0.1 g of recombinant E. coli cells.

[8] = pH stability of recombinant L. reuteri oxidoreductase; format: physicochemical
Description: The dependence of the activity of the enzyme on storage in buffers of different pH was studied for the pH range from 4 to 11. For this purpose, various buffers (50 mM) in the pH range from 4 to 11 were prepared and the enzyme overexpressed in example 4 was diluted therein 1:200 and incubated for 30, 60 and 300 min. All buffers contained 1 mM MgCl2. 10 μl thereof were then used in the normal activity assay. The starting value here is the measurement value obtained immediately after diluting the enzyme in potassium phosphate buffer 50 mM pH=7.0. Said value corresponded under predefined conditions to a change in extinction of 0.70/min and was set to 100% and all subsequent measurement values were related to this value.

[9] = Temperature optimum of recombinant L. reuteri oxidoreductase; format: biochemical
[10] = reduction with NADPH, activity with ethyl 2-oxo-4-phenylbutyrate set to 100%
[11] = water-immiscible solvent, same volume as buffer, activity from the aqueous phase
[12] = water-miscible solvent mixture or buffer, enzyme 1:400, starting value 100%
[13] = Oxidation, activity with ethyl 2-oxo-4-phenylbutyrate set to 100%

Molecule: CCOC(=O)CC(=O)CCl [Ethyl 4-chloro-acetoacetate]
- Relative activity % [1, 10]: 16%

Molecule: CCCCCCC [Heptane]
- Activity 8 h [2, 11]: 113%
- Activity 24 h [2, 11]: 100%

Molecule: CCO [20% EtOH, EtOH]
- Activity 8 h [2, 12]: 83%
- Activity 24 h [2, 12]: 80%

Molecule: CC(=O)Cc1ccccc1 [1-Phenyl-2-propanone]
- Relative activity % [1, 10]: 3%

Molecule: C[S+](C)[O-] [20% DSMO]
- Activity 8 h [2, 12]: 79%
- Activity 24 h [2, 12]: 80%

Molecule: CCCC(=O)C(=O)O [2-Oxovaleric acid]
- Relative activity % [1, 10]: 0%

Molecule: CCCC(=O)C(=O)OCC [Ethyl 2-oxovalerate]
- Relative activity % [1, 10]: 190%

Molecule: COC(C)(C)C [MTBE]
- Activity 8 h [2, 11]: 90%
- Activity 24 h [2, 11]: 81%

Molecule: CCCCCCCC(=O)c1ccccc1 [Caprylophenone]
- Relative activity % [1, 10]: 0%

Molecule: CCC(=O)C(=O)O [2-oxobutyric acid]
- Relative activity % [1, 10]: 0%

Molecule: CCCCCC [Hexane]
- Activity 8 h [2, 11]: 115%
- Activity 24 h [2, 11]: 100%

Molecule: O=C(O)C(=O)Cc1ccccc1 [2-Oxo-3-phenyl-propionic acid]
- Relative activity % [1, 10]: 0.5%

Molecule: CCOCC [Diethyl ether]
- Activity 8 h [2, 11]: 32%
- Activity 24 h [2, 11]: 20%

Molecule: CCOC(=O)CCCCC(=O)CCCl [Ethyl 8-chloro-6-oxooctanoic acid]
- Relative activity % [1, 10]: 190%

Molecule: COC(=O)CCCCC(=O)CC(=O)OC [Dimethyl-3-oxo-1,8-octanedioic acid]
- Relative activity % [1, 10]: 42%

Molecule: CCCCCCC(C)=O [2-Octanone]
- Relative activity % [1, 10]: 1%

Molecule: CC(C)O [5% Isopropanol, Isopropanol]
- Activity 8 h [2, 12]: 77%
- Activity 24 h [2, 12]: 77%

Molecule: CCOC(=O)C(C)=O [Ethyl pyruvate]
- Relative activity % [1, 10]: 2%

Molecule: CC(C)OC(C)C [Diisopropyl ether]
- Activity 8 h [2, 11]: 94%
- Activity 24 h [2, 11]: 77%

Molecule: CCCCOC(C)=O [Butyl acetate]
- Activity 8 h [2, 11]: 74%
- Activity 24 h [2, 11]: 12%

Molecule: CC(C)O [20% Isopropanol, Isopropanol]
- Activity 8 h [2, 12]: 100%
- Activity 24 h [2, 12]: 100%

Molecule: CCOC(C)=O [Ethyl acetate]
- Activity 8 h [2, 11]: 0%
- Activity 24 h [2, 11]: 0%

Molecule: CCCCCC(=O)CC [3-Octanone]
- Relative activity % [1, 10]: 4%

Molecule: O=C(O)C[C@H](O)CCl [S-4-Chloro-3-hydroxy-butyrate]
- Relative activity % [1, 13]: 0%
- NADP-dependent dehydrogenase activity [1]: no NADP-dependent dehydrogenase activity

Molecule: CCOC(=O)C(=O)c1ccccc1 [Ethyl phenylglyoxylate]
- Relative activity % [1, 10]: 2%

Molecule: CC(C)O [2-Propanol]
- Relative activity % [1, 13]: 0%

Molecule: CCOC(=O)C(=O)CCc1ccccc1 [Ethyl 2-oxo-4-phenyl-butyrate]
- conversion to ethyl 2-hydroxy-4-phenylbutyrate [3]: completely converted
- conversion to ethyl 2-hydroxy-4-phenylbutyrate [4]: completely converted
- Relative activity % [1, 10]: 100%

Molecule: O=C(CCl)c1cccc(Cl)c1 [2-Chloro-l-(3-chloro-phenyl)-ethan-1-one]
- Relative activity % [1]: 0%

Molecule: CC(C)=O [Acetone]
- Relative activity % [1, 10]: 0%

Molecule: CCO [30% EtOH, EtOH]
- Activity 8 h [2, 12]: 77%
- Activity 24 h [2, 12]: 75%

Molecule: C[S+](C)[O-] [10% DSMO]
- Activity 8 h [2, 12]: 80%
- Activity 24 h [2, 12]: 80%

Molecule: COC(=O)CC(C)=O [Methyl acetoacetate]
- Relative activity % [1, 10]: 0.3%

Molecule: ClC(Cl)Cl [Chloroform]
- Activity 8 h [2, 11]: 6%
- Activity 24 h [2, 11]: 0%

Molecule: CC(C)O [10% Isopropanol, Isopropanol]
- Activity 8 h [2, 12]: 86%
- Activity 24 h [2, 12]: 85%

Molecule: CCO [10% EtOH, EtOH]
- Activity 8 h [2, 12]: 68%
- Activity 24 h [2, 12]: 70%

Molecule: R-4-Chloro-3-hydroxy-butyrate
- Relative activity % [1, 13]: 0%
- NADP-dependent dehydrogenase activity [1]: no NADP-dependent dehydrogenase activity

Molecule: CCOC(=O)[C@@H](C)O [Ethyl D-lactate]
- Relative activity % [1, 13]: 0%
- NADP-dependent dehydrogenase activity [1]: no NADP-dependent dehydrogenase activity

Molecule: CCOC(=O)[C@H](O)CCc1ccccc1
- Relative activity % [1, 13]: 0%
- NADP-dependent dehydrogenase activity [1]: no NADP-dependent dehydrogenase activity

Molecule: CCO [5% EtOH, EtOH]
- Activity 8 h [2, 12]: 64%
- Activity 24 h [2, 12]: 65%

Molecule: CC(=O)c1ccccc1 [Acetophenone]
- Relative activity % [1, 10]: 0%

Molecule: CCOC(=O)[C@H](C)O [Ethyl L-lactate]
- Relative activity % [1, 13]: 0%
- NADP-dependent dehydrogenase activity [1]: no NADP-dependent dehydrogenase activity

Molecule: CC(C)O [30% Isopropanol, Isopropanol]
- Activity 8 h [2, 12]: 0%
- Activity 24 h [2, 12]: 0%

Molecule: C1CCCCC1 [Cyclohexane]
- Activity 8 h [2, 11]: 113%
- Activity 24 h [2, 11]: 100%

Molecule: CCOC(=O)CC(=O)CC [Ethyl 3-oxo-valerate]
- Relative activity % [1, 10]: 1.3%

B1: recombinant L. reuteri oxidoreductase (Limosilactobacillus reuteri subsp. reuteri) (protein)
chain: MKNIMIAGAGVLGSQIAYQTALSGFNVSVYNHHIDTAERRIKALKSDYERDLHLTDKEFQQGLNNIKVITDDVATAVKDADLMIEALPESLELKEQFYEEVSELAPEKTIFASNSSTFIPSQLAPYTDRPEKFLNMHFANQIWKFNVVEIMGTSQTSPEVIEEATKFAREIKMVPVILNKEQHGYILNSLLIPLLASGLSLWAKGVADPAMIDKDWMISTGAPMGPFGILDMVGLRTAAQIERNAYAQTKDESHKEIADKMEQMIQEGHEGKESGQGFYNYPNPAFMDPDFLKH
- share of maximum activity ([5]; in the pH range from 4.5 to 8): 80%
- activity outside the pH range ([5]; pH values of below 4.0 and above 8.5): rapidly decreasing
- enzyme activity after incubation at 55° C. [6]: no longer detectable
- stability with respect to organic solvents [2]: remarkably stable
- stability with respect to organic solvents ([2]; listed as Lactobacillus reuteri oxidoreductase): high stability
- Km [7]: 180 ± 70 µM
- remaining activity ([8]; pH 4.0, after 5 h): 50%
- remaining activity ([8]; pH 9.0, after 5 h): 40%
- stability at high pH ([8]; pH values above 9.5): immediate inactivation
- Activity in U/ml of undiluted enzyme ([9]; 15 ° C.): 385 U/ml of undiluted enzyme
- Activity in U/ml of undiluted enzyme ([9]; 20 ° C.): 745 U/ml of undiluted enzyme
- Activity in U/ml of undiluted enzyme ([9]; 25 ° C.): 1090 U/ml of undiluted enzyme
- Activity in U/ml of undiluted enzyme ([9]; 30 ° C.): 1350 U/ml of undiluted enzyme
- Activity in U/ml of undiluted enzyme ([9]; 35 ° C.): 1860 U/ml of undiluted enzyme
- Activity in U/ml of undiluted enzyme ([9]; 40 ° C.): 2500 U/ml of undiluted enzyme
- Activity in U/ml of undiluted enzyme ([9]; 45 ° C.): 2900 U/ml of undiluted enzyme
- Activity in U/ml of undiluted enzyme ([9]; 50 ° C.): 3200 U/ml of undiluted enzyme
- Activity in U/ml of undiluted enzyme ([9]; 55 ° C.): 3800 U/ml of undiluted enzyme
- Activity in U/ml of undiluted enzyme ([9]; 60 ° C.): 617 U/ml of undiluted enzyme
- Activity in U/ml of undiluted enzyme ([9]; 65 ° C.): 180 U/ml of undiluted enzyme
- Activity in U/ml of undiluted enzyme ([9]; 70 ° C.): 90 U/ml of undiluted enzyme
- optimal temperature (maximum activity) ([9]; standard measurement mixture, 15° C. to 70° C.): 55 °C
